Experimental data published in patent US7022680B2, “Inhibitors of ADP-ribosyl transferases, cyclases, and hydrolases” (Albert Einstein College of Medicine of Yeshiva University, priority 2002, dated 2006).
Several values for one entry are separate records, joined by “and”; a condition that tells them apart may be missing. Equal entries are not always repeated.

How the values were obtained:
[1] = Solution hydrolysis of the inhibitor; format: physicochemical; details: 10 mM potassium phosphate, pH 6.5, 25° C.
Source text: Without being bound to any particular mechanism, it is believed that the electron-contributing moiety on A stabilizes the compounds of the invention such that they are less susceptible to hydrolysis from the rest of the compound. For example, the compound β-1′-5-methyl-nicotinamide-2′-deoxyribose (established as an effective inhibitor of CD38 in the Example) was compared with β-1′-nicotinamide-2′-deoxyribose in its ability to resist solution hydrolysis. […] This difference in chemical stability means that β-1′-nicotinamide-2′-deoxyribose is 50% depleted from solution in 2 hours, whereas β-1′-5-methyl-nicotinamide-2′-deoxyribose is not hydrolyzed by 50% until 12 hours. This improved chemical stability improves the value of the compound, since it is available for action for longer periods of time in biological systems due to resistance to hydrolytic breakdown.

human CD38 [2] = target: T1, human CD38 (Homo sapiens, UniProt P28907); assay: Off-rate / recovery of inhibited CD38 in excess NGD+; format: biochemical; set-up: The soluble domain of human CD38 catalyzes the conversion of NAD^+ to cyclic-ADP-ribose; details: inhibited CD38 added to excess NGD+, 19° C.; for koff: read-out: koff, rate constant of recovery from inhibition
T1 sequence (P28907 43-300 limits assumed): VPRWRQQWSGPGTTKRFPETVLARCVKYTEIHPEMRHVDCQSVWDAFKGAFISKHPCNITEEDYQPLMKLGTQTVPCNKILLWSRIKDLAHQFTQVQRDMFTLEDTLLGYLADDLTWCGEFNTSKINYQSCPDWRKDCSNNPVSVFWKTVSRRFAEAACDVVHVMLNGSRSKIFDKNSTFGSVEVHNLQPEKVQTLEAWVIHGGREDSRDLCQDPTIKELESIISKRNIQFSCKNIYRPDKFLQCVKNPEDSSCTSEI
Description: Off-Rate Measurement. 500 nM CD38 in 50 mM potassium phosphate pH 7.2 was incubated with 15 μM inhibitor for 30 min at room temperature. 5 μL of the enzyme inhibitor solution was added to a cuvette containing 1 mL reaction of 50 mM potassium phosphate pH 7.5 containing 300 μM NGD^+ pre-chilled to 19° C. Production of […] was determined by monitoring 295 nm absorbance. The absorbance was fit to the equation A(t)=vt+(b−v)(1−exp(−kt))/k+A0 where A(t) is the absorbance, k is the rate constant of recovery, b is the initial rate, v is the final rate and A0 is the initial absorbance. A control lacking inhibitor but in all other respects identical was also run.
Recovery from Inhibition. […] The inhibitor off-rate provides the final parameter in the equation koff/kon*Ki=Ki(total) which is valid for the kinetic scheme of slow-onset inhibition shown in Scheme 5. This rate was obtained by a recovery protocol in which inhibited CD38 enzyme (by either 1 or 2) was added to a 200 μM solution of NGD^+. The solution 295 nm absorbance is monitored spectrophotometrically to assay conversion of NGD^+ to cGDPR as a consequence of regain of CD38 catlytic activity. […] The absorbance curves with the same equation used for slow-onset: At=vit+(vi−vf)(1−exp(−kt))/k+A0 where At is absorbance, vi is initial velocity, vf is final velocity, t is time in s, k is the rate of the recovery rate constant and A0 is the absorbance of the sample at initial time. The rate constant for the recovery phase was obtained from the average value of k determined from the separate fits. The value of koff for 1 was determined to be 1.5×10^−5 s^−1 and for 2 was determined to be 2.5×10^−5 S^−1.

human CD38 [3] = target: T1, human CD38; assay: CD38-catalyzed base exchange of 2 to 1 with nicotinamide, HPLC; format: biochemical; set-up: The soluble domain of human CD38 catalyzes the conversion of NAD^+ to cyclic-ADP-ribose; details: 75 μM 2, 1 μM CD38, nicotinamide, 19° C.
Description: Base-exchange reaction. […] These reactions were run separately in autosampler tubes held at 19° C. in a temperature regulated autosampler and assayed by multiinjection HPLC using 5 mM K2PO4H pH 5.0 and 2.5% MeOH as eluant. The quantity of 2 reacted and the quantity of 1 formed versus time was determined by integrations of the peaks for 1 and 2 with comparison to standards.

human CD38 [4] = target: T1, human CD38; assay: Competitive and slow-onset inhibition of CD38-catalyzed conversion of NGD+ to cGDPR (295 nm absorbance); format: biochemical; set-up: The soluble domain of human CD38 catalyzes the conversion of NAD^+ to cyclic-ADP-ribose; details: even at millimolar concentrations (data not shown)
Description: Determination of Ki and kon by competitive method. To 1 mL solutions of 50 mM potassium phosphate pH 7.2 and 100 μM NGD^+ containing, 50, 25, 12.5, and 6.25 and 0 μM inhibitor 1 was added 2 μL of 7 μM CD38. Reaction progress upon initiation by enzyme addition was monitored by measurement of 295 nm absorbance. The initial slopes were used to determine the Ki value, and all points of the experiment were fit to the equation A(t)=vt+(b−v)(1−exp(−kt))/k+A0 where k is the observed rate constant, b is the initial rate, v is the final rate and A0 is the initial absorbance was used to evaluate kon.
Determination of Competitive Inhibition by Initial Rates: The inhibitors 1–3 were evaluated for inhibition of CD38 enzymatic activity using a spectrophotometric assay. CD38 catalyzes the conversion of NGD^+ to cyclic-GDP ribose (cGDPR, Scheme 4) and product formation can be monitored by 295 nm absorbance measurement. […] A similar reaction containing 40 μM NGD^+ at several concentrations of 2 was also performed (FIG. 3).
Slow Phase Inhibition. […] This slow phase was not due to substrate depletion and was attributable to a kinetic process leading to progressive inhibition of the enzyme. The “slow-onset” absorbance curves could be fit using the equation At=vit+(vi−vf)(1−exp(−kt))/k+A0 where At is absorbance, vi is initial velocity, vf is final velocity, t is time in s, k is the rate of the slow onset process and A0 is absorbance of the sample at initial time. These fits are shown by the solid lines in FIG. 2 and FIG. 3. The rate constant for the slow phase could be obtained from the average value of k determined from the separate fits. The value of k for 1 was determined to be 0.0042±0.001 s^−1 and the value of k for 2 was determined to be 0.0083±0.002 s^−1. The parameter k is defined as kon in Scheme 5. [drawing 19]

CD38 = target: T2, CD38 (Homo sapiens, UniProt P28907); details: 37° C.; cited from earlier work
T2 sequence (P28907 1-300): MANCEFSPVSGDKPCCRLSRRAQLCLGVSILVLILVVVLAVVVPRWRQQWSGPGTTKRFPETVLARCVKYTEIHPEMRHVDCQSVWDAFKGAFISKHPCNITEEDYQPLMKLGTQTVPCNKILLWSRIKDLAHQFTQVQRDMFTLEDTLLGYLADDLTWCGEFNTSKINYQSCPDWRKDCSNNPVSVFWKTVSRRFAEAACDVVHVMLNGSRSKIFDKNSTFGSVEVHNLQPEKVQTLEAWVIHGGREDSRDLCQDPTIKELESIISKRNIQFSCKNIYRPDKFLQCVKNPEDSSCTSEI

human CD38 [5] = target: T1, human CD38; assay: Radiochemical labeling of CD38 by [2'-3H] inhibitor (gel filtration, scintillation counting); format: binding; set-up: The soluble domain of human CD38 catalyzes the conversion of NAD^+ to cyclic-ADP-ribose; details: 9 μM inhibitor, 1.2 μM CD38 monomer, pH 7.5, 25° C.
Description: Radiochemical measurement of inhibitor binding. […] Inhibitor at 9 μM with specific radioactivity of 866 cpm/nmol, was incubated with 1.2 μM CD38 (monomer) in 1 mL 50 mM potassium phosphate (pH 7.5). The reactions were started by enzyme addition and quenched by freezing with a dry ice/acetone bath at 30, 60 90, 120, 250, 500, and 1000 s. Cooled (0° C.) gel filtration columns were used to separate protein with cooled (0° C.) 10 mM potassium phosphate as eluant. The frozen fraction were quickly thawed, applied to these columns and fractions collected in 1 mL volumes over the course of several minutes. Scintillation fluid (9 mL) was then added to each 1 mL fraction and samples counted. […] The observed radioactivity was fit using the equation A(t)=A0(1−exp(−kt))+B. where A0 is activity at reaction completion, k is the observed pseudo-first order rate constant and B is the activity of the blank.
Titration of Enzyme with [2′-^3H]Inhibitor. CD38 inactivation was accomplished using a radiolabeled inhibitor to assess inhibitor interactions with the enzyme independent from inhibition of the catalytic activity. This method allows the determination of the stoichiometry of covalent labeling, and detects cooperativity at multiple sites. […] (FIG. 8) within reasonable agreement with the rate constant for inactivation in kinetic assays of inhibition (kon=0.0042 s^−1 at 19° C.). […]

human CD38 [6] = target: T1, human CD38; details: CD38 preincubated with inhibitor 2; saturating nicotinamide
Description: 10 mL CD38 (1 μM) in K2PO4H was incubated with 2 (10 μM) for 30 minutes at room temperature and subsequently placed on ice. […] To a two syringe Applied Photophysics spectrophotometer in fluorescence mode was added inhibited enzyme to one syringe and NGD^+ solution to the other. Fluorescence was used to monitor cGDPR formation and the total fluorescence curves fit using the activity recovery equation F(t)=vt+(b−v) (1−exp(−kt))/k+F0 where k is the observed rate constant, b is the initial rate, v is the final rate and F0 is the initial absorbance.
A stopped flow, two syringe fitted spectrophotometer was used to perform the experiments. The fluorescence of cGDPR was measured as a function of time to generate curves that contain an exponential and a linear phase prior to substrate exhaustion. These curves were fit to the equation Ft=vft+(vi−vf)(1−exp (−kt))/k+F0 as previously defined.

For `Cc1cc(C(N)=O)c[n+]([C@H]2C[C@H](O)[C@@H](CO)O2)c1` [inhibitor 2, 5-methyl-nicotinamide-2′-deoxyriboside], the “time until 50% depleted from solution by hydrolysis” value [1] was 12 h, the “koff, rate constant of recovery from inhibition” value (human CD38 [2]) was 2.5e-05 s⁻¹ and the koff (human CD38 [2]) was ~2e-05 s⁻¹. The “kcat of base exchange (2 to 1)” value (human CD38 [3]) was 0.007 s⁻¹.

With `NC(=O)c1ccc[n+]([C@H]2C[C@H](O)[C@@H](CO)O2)c1` [inhibitor 1, nicotinamide-2′-deoxyriboside] the “time until 50% depleted from solution by hydrolysis” value [1] was 2 h, the “koff, rate constant of recovery from inhibition” value (human CD38 [2]) was 1.5e-05 s⁻¹ and the koff (human CD38 [2]) was ~2e-05 s⁻¹.

With `Cc1cc(C(N)=O)c[n+](C2CC(O)C(CO)O2)c1` (single isomer, unassigned) [α isomer of 2] the “inhibition of CD38 conversion of NGD+ to cGDPR” value (from here on “inhibition … to cGDPR”) (human CD38 [4]) was “did not inhibit”.

For `NC(=O)c1ccc[n+](C2CC(O)C(CO)O2)c1` (single isomer, unassigned) [α isomer of 1], the “inhibition … to cGDPR” value (human CD38 [4]) was “did not inhibit”.

For `NC(=O)c1ccc[n+]([C@@H]2O[C@H](COP(=O)(O)O)[C@@H](O)[C@H]2O)c1` [NMN^+], the “ratio of the rates of turnover of CD38 covalent intermediates, NMN+ versus ara-F-NMN+” value (CD38) is listed as ~10^7.

In the case of `OC[C@H]1O[C@@H]([n+]2ccccc2)C[C@@H]1O` [inhibitor 3, pyridyl-2′-deoxyriboside], the “inhibition … to cGDPR” value (human CD38 [4]) is reported as “did not inhibit”.

In the case of `[3H]C1[C@H]([n+]2cccc(C(N)=O)c2)O[C@H](CO)[C@H]1O` (stereo partly shown) [[2′-^3H]-1, [2′-^3H]Nicotinamide deoxyriboside], the “rate constant of radiochemical labeling of CD38 (kchem)” value (human CD38 [5]) is reported as 0.01 s⁻¹.

With `NC(=O)c1cccnc1` [nicotinamide] the “maximum rate of rescue (kbase)” value (human CD38 [6]) was 0.023 s⁻¹ and 0.024 s⁻¹.
